In US6835733B2, “Tropane linked benzofuran derivatives” (Eli Lilly and Company, priority 1999, dated 2004):
Counter-ions that a name gives are not always drawn.

COc1cccc2sc(C3=CC4CCC(C3)N4C[C@H](O)COc3cccc4occc34)cc12 (stereo partly shown) (as salt: oxalate)
melting point: 201 to 204 °C (dec.)
